Data published in patent US20260217701A1, “SELECTIVE BET INHIBITORS AND USES THEREOF” (Tay Therapeutics Limited, priority 2022, published 2026).
“And” between values parts separate entries of the source, which are not always exact repeats. Equal entries are not always repeated. Where two headings read alike, the source gives them in different places.

Assay: Rat PK study #4 (Compound A PO 0.2 and 1.0 mg/kg, propylene glycol formulation)
Type: in vivo, Lewis rats
Conditions: propylene glycol-based formulation; for Plasma Concentration / concentration at 0.25 h / concentration at 0.5 h / concentration at 1 h / concentration at 2 h / concentration at 4 h / concentration at 6 h / concentration at 8 h / concentration at 24 h: Lewis rats; for MRT inf: read-out: MRTInf_obs
Procedure: For the fourth rat pharmacokinetic study, the pharmacokinetics of Compound A were assessed in male Lewis rats. Compound A was prepared in two different doses (0.2 mg/kg and 1.0 mg/kg) formulated in 20% propylene glycol/20% Vitamin E TPGS/60% water (see Table 1A for formulations). Animals were divided into two groups based on the compound formulation (n=3/group). The Compound A solutions were administered to animals orally (PO) and animals were then monitored over a 24 h period.
Blood samples (~0.2 mL) were collected according to a schedule (0.25, 0.5, 1, 2, 4, 6, 8, and 24 h following the initial dosing) by jugular vein by cannulation and EDTA-K2 was used as anticoagulant. Within 30 minutes of collection, the samples were centrifuged at approximately 4000 times g-force for 5 minutes at 4° C. to obtain blood plasma. The plasma samples were immediately divided into two aliquots (~75 μL each), transferred to a cryogenic vial, and stored in a freezer at −75±15° C. prior to analysis.
The concentration of Compound A in plasma samples was determined by liquid chromatography-mass spectrometry (LC-MS/MS) using a Shimadzu HPLC (DGU-20A5R; LC-30AD; SIL-30AC; Rack changer II; CTO-30A; and CBM-20A) and an AB API 5500+LC/MS/MS instrument. Samples were analyzed on an Agilent Poroshell 120 EC-C18 4 μm (50×2.1 mm) column. Solution A in the mobile phase was 95% water (0.1% formic acid) and solution B was 95% acetonitrile in water (0.1% formic acid), injection volume was 10 μL, and flow rate was 0.6 mL/min.
To prepare samples for analysis, serial concentrations were prepared by diluting the stock solution of analyte with a 50% acetonitrile in water solution. 5 μL working solutions (5, 10, 20, 50, 100, 500, 1000, 5000, and 10000 ng/ml) were added to 50 μL of the blank Lewis rat plasma to achieve calibration standards of ~0.5 to 1000 ng/ml (0.5, 1, 2, 5, 10, 50, 100, 500, and 1000 ng/ml) in a total volume of 55 μL. Five quality control samples at 1 ng/ml, 2 ng/ml, 5 ng/ml, 50 ng/ml, and 800 ng/ml for plasma were prepared independently of those used for the calibration curves. These QC samples were prepared on the day of analysis in the same way as calibration standards.
55 μL of standards, 55 μL of QC samples and 55 μL of unknown samples (50 μL of unknown rat plasma with 5 µL of blank solution) were added to 200 μL of acetonitrile containing IS mixture (verapamil) for precipitating protein respectively. The samples were then vortexed for 30 s. After centrifugation at 4° C., 3900 rpm for 15 min, the supernatant was diluted 3 times with water. 10 μL of diluted supernatant was injected into the LC/MS/MS system for quantitative analysis.

[1] = 0.2 mg/kg PO, individual animals
[2] = male, Lewis, rat, plasma, po, 0.2 mg/kg, 0.2 mg/kg PO, individual animals
[3] = male, Lewis, rat, plasma, po, 0.2 mg/kg, 0.2 mg/kg PO, mean
[4] = male, Lewis, rat, plasma, po, 1 mg/kg, 1 mg/kg PO, individual animals
[5] = male, Lewis, rat, plasma, po, 1 mg/kg, 1 mg/kg PO, mean

With Cn1cc(-c2ccccc2)c(-c2cn(C)c(=O)c3[nH]c(-c4cnn(C(F)(F)F)c4)cc23)cc1=O [Compound A, 6-methyl-4-(1-methyl-2-oxo-5-phenyl-1,2-dihydropyridin-4-yl)-2-(1-(trifluoromethyl)-1H-pyrazol-4-yl)-1,6-dihydro-7H-pyrrolo[2,3-c]pyridin-7-one] the AUCInf [1] was 82.0 ng·h/mL and 51.1 ng·h/mL and 103 ng·h/mL, the AUC_%Extrap_obs [1] was 7.28% and 43.9% and 3.68% and the AUClast [1] was 76.0 ng·h/mL and 28.7 ng·h/mL and 99.1 ng·h/mL. The AUClast/D [1] was 380 (ng · h/mL)/(mg/kg) and 143 (ng · h/mL)/(mg/kg) and 496 (ng · h/mL)/(mg/kg), the Cmax [1] was 5.29 ng/mL and 8.20 ng/mL and the MRTInf_obs [1] was 9.52 h and 7.69 h. The T1/2 [1] was 6.09 h and 4.94 h, the AUC_%Extrap_obs (0.2 mg/kg PO, mean) was 18.3% and the AUClast/D (0.2 mg/kg PO, mean) was 340 (ng · h/mL)/(mg/kg). For the same compound, the AUCInf (1 mg/kg PO, individual animals) was 454 ng·h/mL and 217 ng·h/mL, the AUC_%Extrap_obs (1 mg/kg PO, individual animals) was 3.74% and 14.6% and the AUClast (1 mg/kg PO, individual animals) was 437 ng·h/mL and 185 ng·h/mL and 447 ng·h/mL. For the same compound, the AUClast/D (1 mg/kg PO, individual animals) was 437 (ng · h/mL)/(mg/kg) and 185 (ng · h/mL)/(mg/kg) and 447 (ng · h/mL)/(mg/kg), the Cmax (1 mg/kg PO, individual animals) was 47.5 ng/mL and 23.3 ng/mL and 44.9 ng/mL and the MRTInf_obs (1 mg/kg PO, individual animals) was 11.4 h. The T1/2 (1 mg/kg PO, individual animals) was 9.35 h, the AUC_%Extrap_obs (1 mg/kg PO, mean) was 9.2% and the AUClast/D (1 mg/kg PO, mean) was 356 (ng · h/mL)/(mg/kg). For the same compound, the clinical symptoms (0.2 and 1 mg/kg PO) was “no abnormal clinical symptoms observed”, the “Plasma Concentration” value (PO 1 mg/kg, 0.25 h, individual animals, 1 mg/kg) was 6.05 ng/mL and 2.36 ng/mL and 5.82 ng/mL and the “Plasma Concentration” value (PO 1 mg/kg, 0.5 h, individual animals, 1 mg/kg) was 19.1 ng/mL. The “Plasma Concentration” value (PO 1 mg/kg, 2 h, individual animals, 1 mg/kg) was 47.5 ng/mL and 23.3 ng/mL and 44.9 ng/mL, the “Plasma Concentration” value (PO 1 mg/kg, 4 h, individual animals, 1 mg/kg) was 37.4 ng/mL and 15.0 ng/mL and 27.5 ng/mL and the “Plasma Concentration” value (PO 1 mg/kg, 6 h, individual animals, 1 mg/kg) was 25.4 ng/mL and 9.27 ng/mL and 16.5 ng/mL. The “Plasma Concentration” value (PO 1 mg/kg, 8 h, individual animals, 1 mg/kg) was 20.4 ng/mL and 7.30 ng/mL and 11.6 ng/mL, the “Plasma Concentration” value (PO 1 mg/kg, 24 h, individual animals, 1 mg/kg) was 2.29 ng/mL and 2.35 ng/mL and 19.1 ng/mL and the Tmax [2] was 2 h. It also gave a half-life [2] of 6.51 h, a Cmax (male, Lewis, rat, plasma, po, 0.2 mg/kg, 0.2 mg/kg PO, individual animals, read-out: Cmax) of 7.99 ng/mL and an MRT inf [2] of 8.72 h. The AUC(0-inf) [3] was 79 ng·h/mL, the AUC(0-t) [3] was 67.9 ng·h/mL and the Tmax [3] was 2.67 h. The half-life [3] was 5.85 h, the Cmax (male, Lewis, rat, plasma, po, 0.2 mg/kg, 0.2 mg/kg PO, mean, read-out: Cmax) was 7.16 ng/mL and the MRT inf [3] was 8.65 h. The concentration at 0.25 h (male, Lewis, rat, plasma, po, 0.2 mg/kg, PO 0.2 mg/kg, 0.25 h, mean of 3 animals) was 0.34 ng/mL, the concentration at 0.5 h (male, Lewis, rat, plasma, po, 0.2 mg/kg, PO 0.2 mg/kg, 0.5 h, individual animals) was 2.31 ng/mL and the concentration at 0.5 h (male, Lewis, rat, plasma, po, 0.2 mg/kg, PO 0.2 mg/kg, 0.5 h, mean of 3 animals) was 1.77 ng/mL. It also gave a concentration at 1 h (male, Lewis, rat, plasma, po, 0.2 mg/kg, PO 0.2 mg/kg, individual animals) of 5.24 ng/mL, a concentration at 1 h (male, Lewis, rat, plasma, po, 0.2 mg/kg, PO 0.2 mg/kg, mean of 3 animals) of 4.51 ng/mL and a concentration at 2 h (male, Lewis, rat, plasma, po, 0.2 mg/kg, PO 0.2 mg/kg, 2 h, individual animals) of 7.99 ng/mL. For the same compound, the concentration at 2 h (male, Lewis, rat, plasma, po, 0.2 mg/kg, PO 0.2 mg/kg, 2 h, mean of 3 animals) was 7.09 ng/mL, the concentration at 4 h (male, Lewis, rat, plasma, po, 0.2 mg/kg, PO 0.2 mg/kg, 4 h, mean of 3 animals) was 6.11 ng/mL and the concentration at 6 h (male, Lewis, rat, plasma, po, 0.2 mg/kg, PO 0.2 mg/kg, 6 h, individual animals) was 4.13 ng/mL. It also gave a concentration at 6 h (male, Lewis, rat, plasma, po, 0.2 mg/kg, PO 0.2 mg/kg, 6 h, mean of 3 animals) of 4.48 ng/mL, a concentration at 8 h (male, Lewis, rat, plasma, po, 0.2 mg/kg, PO 0.2 mg/kg, 8 h, mean of 3 animals) of 3.96 ng/mL and a concentration at 24 h (male, Lewis, rat, plasma, po, 0.2 mg/kg, PO 0.2 mg/kg, 24 h, mean of 3 animals) of 0.389 ng/mL. The Tmax [4] was 2 h, the half-life [4] was 5.14 h and the MRT inf [4] was 7.1 h. It also gave an AUC(0-inf) [5] of 335 ng·h/mL, an AUC(0-t) [5] of 356 ng·h/mL and a Tmax [5] of 2 h. For the same compound, the half-life [5] was 7.24 h, the Cmax (male, Lewis, rat, plasma, po, 1 mg/kg, 1 mg/kg PO, mean, read-out: Cmax) was 38.6 ng/mL and the MRT inf [5] was 9.3 h. For the same compound, the concentration at 0.25 h (male, Lewis, rat, plasma, po, 1 mg/kg, PO 1 mg/kg, 0.25 h, mean of 3 animals) was 4.74 ng/mL, the concentration at 0.5 h (male, Lewis, rat, plasma, po, 1 mg/kg, PO 1 mg/kg, 0.5 h, mean of 3 animals) was 15.2 ng/mL and the concentration at 1 h (male, Lewis, rat, plasma, po, 1 mg/kg, PO 1 mg/kg, mean of 3 animals) was 30.4 ng/mL. For the same compound, the concentration at 2 h (male, Lewis, rat, plasma, po, 1 mg/kg, PO 1 mg/kg, 2 h, mean of 3 animals) was 38.6 ng/mL, the concentration at 4 h (male, Lewis, rat, plasma, po, 1 mg/kg, PO 1 mg/kg, 4 h, mean of 3 animals) was 26.6 ng/mL and the concentration at 6 h (male, Lewis, rat, plasma, po, 1 mg/kg, PO 1 mg/kg, 6 h, mean of 3 animals) was 17.1 ng/mL. The concentration at 8 h (male, Lewis, rat, plasma, po, 1 mg/kg, PO 1 mg/kg, 8 h, mean of 3 animals) was 13.1 ng/mL and the concentration at 24 h (male, Lewis, rat, plasma, po, 1 mg/kg, PO 1 mg/kg, 24 h, mean of 3 animals) was 7.9 ng/mL.
